The experiment deals with recombinant 17β-HSD13 protein (Homo sapiens (Human), UniProt Q7Z5P4). The experiment is described as follows: 17β-HSD13 biochemical assay (NAD+/NADH Glo chemiluminescence). The following applies: 17β-HSD13 50 nM, NAD+ 10 mM, β-estradiol 20 μM, 2 hours room temperature. Here is the method:
17β-HSD13 biochemical assays are generically described in patents WO 2022/020730, WO 2021/003295, and WO 2023/023310. More specifically, recombinant 17β-HSD13 protein was assayed in a buffer containing 200 mM Tris pH 7.5, 0.01% Triton X-100, and 0.02% BSA into a 384-well assay plate. Compounds were incubated with 17β-HSD13 (final 50 nM) and NAD+ (final 10 mM) at room temperature for 1 h prior to substrate addition. The assay reaction was then initiated by addition of β-estradiol (final 20 μM), and the reaction mixture was incubated for 2 hours at room temperature. Product formation was detected with chemiluminescence by adding equal volume of NAD+/NADH Glo reagent (Promega, #G9062) and read on a PHERAstar microplate reader (BMG LABTECH). IC50 values were determined with GraphPad Prism®, where log-transformed concentration values and the inhibition data were fitted to a four-parameter logistic equation. Y=Bottom+(Top−Bottom)/(1+10^((Log IC50−X)*HillSlope)). The original, % control, or % inhibition data are represented by Y along with their minimal (Bottom) and maximal (Top) values. The inhibitor concentration is represented by X, IC50 is the concentration at 50% maximal value, and Hill Slope is the slope factor.

Chain of recombinant 17β-HSD13 protein (Q7Z5P4 20-300): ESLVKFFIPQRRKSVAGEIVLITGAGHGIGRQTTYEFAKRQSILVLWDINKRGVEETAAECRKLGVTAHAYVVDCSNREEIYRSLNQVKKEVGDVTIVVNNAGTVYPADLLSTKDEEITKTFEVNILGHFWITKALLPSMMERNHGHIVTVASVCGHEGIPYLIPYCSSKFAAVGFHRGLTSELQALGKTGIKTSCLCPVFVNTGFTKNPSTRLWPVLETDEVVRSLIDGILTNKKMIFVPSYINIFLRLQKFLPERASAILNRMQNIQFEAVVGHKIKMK

For the molecule `CC(C)N1C(=O)N(Cc2nnc(-c3ccc(F)c(O)n3)s2)C2(CC2)C1=O` [Compound I-76, 4-((5-(5-fluoro-6-hydroxypyridin-2-yl)-1,3,4-thiadiazol-2-yl)methyl)-6-isopropyl-4,6-diazaspiro[2.4]heptane-5,7-dione], the IC50 came out at 1390 nM.
For `O=C1N(Cc2ncccn2)C(=O)C2(CC2)N1Cc1nnc(-c2ccc(F)c(O)c2F)s1` [Compound I-21, 4-((5-(2,4-difluoro-3-hydroxyphenyl)-1,3,4-thiadiazol-2-yl)methyl)-6-(pyrimidin-2-ylmethyl)-4,6-diazaspiro[2.4]heptane-5,7-dione], the IC50 worked out at 620 nM.
The result for `C[C@H](COCC(=O)O)N1C(=O)N(Cc2nnc(-c3ccc(F)c(O)c3F)s2)C2(CC2)C1=O` [Compound I-48] reads 1060 nM.
Under `O=C1N(Cc2ccccc2)C(=O)C2(CC2)N1Cc1nnc(-c2cc(C(F)(F)F)c(F)c(O)n2)s1` [Compound I-61, 6-benzyl-4-((5-(5-fluoro-6-hydroxy-4-(trifluoromethyl)pyridin-2-yl)-1,3,4-thiadiazol-2-yl)methyl)-4,6-diazaspiro[2.4]heptane-5,7-dione] stands 505 nM; under `O=C1N(Cc2nnc(-c3ccc(F)c(O)c3F)s2)C2(CC2)C(=O)N1C1(C(F)(F)F)CC1` [Compound I-87, 4-((5-(2,4-difluoro-3-hydroxyphenyl)-1,3,4-thiadiazol-2-yl)methyl)-6-(1-(trifluoromethyl)cyclopropyl)-4,6-diazaspiro[2.4]heptane-5,7-dione], 11.3 nM.
The result for `O=C1N([C@@H](c2ccccc2)C(F)(F)F)C(=O)C2(CC2)N1Cc1nnc(-c2ccc(F)c(O)n2)s1` [Compound I-88, (S)-4-((5-(5-fluoro-6-hydroxypyridin-2-yl)-1,3,4-thiadiazol-2-yl)methyl)-6-(2,2,2-trifluoro-1-phenylethyl)-4,6-diazaspiro[2.4]heptane-5,7-dione] reads 29.1 nM.
With `O=C1N(CC2(C(F)(F)F)CC2)C(=O)C2(CC2)N1Cc1nnc(-c2ccc(Cl)c(O)c2F)s1` [Compound I-25, 4-((5-(4-chloro-2-fluoro-3-hydroxyphenyl)-1,3,4-thiadiazol-2-yl)methyl)-6-((1-(trifluoromethyl)cyclopropyl)methyl)-4,6-diazaspiro[2.4]heptane-5,7-dione], the IC50 came to 146 nM.
The result for `CNC(=O)c1ccc(CN2C(=O)N(Cc3nnc(-c4ccc(F)c(O)c4F)s3)C3(CC3)C2=O)cc1` [Compound I-93, 4-((4-((5-(2,4-difluoro-3-hydroxyphenyl)-1,3,4-thiadiazol-2-yl)methyl)-5,7-dioxo-4,6-diazaspiro[2.4]heptan-6-yl)methyl)-N-methylbenzamide] reads 75.4 nM; that for `CC#CC(N1C(=O)N(Cc2nnc(-c3ccc(F)c(O)c3F)s2)C2(CC2)C1=O)C(F)(F)F` (stereo not drawn) [Compound I-94, 4-((5-(2,4-difluoro-3-hydroxyphenyl)-1,3,4-thiadiazol-2-yl)methyl)-6-(1,1,1-trifluoropent-3-yn-2-yl)-4,6-diazaspiro[2.4]heptane-5,7-dione], 6.77 nM.
The result for `CCN1C(=O)N(Cc2nnc(-c3cnc(Cl)c(O)c3)s2)C2(CC2)C1=O` [Compound I-12, 4-((5-(6-chloro-5-hydroxypyridin-3-yl)-1,3,4-thiadiazol-2-yl)methyl)-6-ethyl-4,6-diazaspiro[2.4]heptane-5,7-dione] reads 323 nM; that for `O=C1N(CC(F)(F)F)C(=O)C2(CC2)N1Cc1nnc(-c2cc(C(F)(F)F)cc(O)c2F)s1` [Compound I-39, 4-((5-(2-fluoro-3-hydroxy-5-(trifluoromethyl)phenyl)-1,3,4-thiadiazol-2-yl)methyl)-6-(2,2,2-trifluoroethyl)-4,6-diazaspiro[2.4]heptane-5,7-dione], 8.45 nM; that for `O=C1N(C(c2ccc(F)cc2F)C(F)(F)F)C(=O)C2(CC2)N1Cc1nnc(-c2ccc(F)c(O)c2Cl)s1` (single isomer, unassigned) [Compound I-54B], 8.43 nM.
The result for `C[C@@H](COCC(=O)O)N1C(=O)N(Cc2nnc(-c3ccc(F)c(O)c3F)s2)C2(CC2)C1=O` [Compound I-49] reads 426 nM; that for `O=C(O)CN1C(=O)N(Cc2nnc(-c3ccc(F)c(O)c3Cl)s2)C2(CC2)C1=O` [Compound I-45, 2-(4-((5-(2-chloro-4-fluoro-3-hydroxyphenyl)-1,3,4-thiadiazol-2-yl)methyl)-5,7-dioxo-4,6-diazaspiro[2.4]heptan-6-yl)acetic acid], 1030 nM.
For `C[C@@H](CO)N1C(=O)N(Cc2nnc(-c3ccc(F)c(O)c3F)s2)C2(CC2)C1=O` [Compound I-47, (S)-4-((5-(2,4-difluoro-3-hydroxyphenyl)-1,3,4-thiadiazol-2-yl)methyl)-6-(1-hydroxypropan-2-yl)-4,6-diazaspiro[2.4]heptane-5,7-dione], the IC50 amounted to 53 nM.
Regarding `O=C1N(CC(F)F)C(=O)C2(CC2)N1Cc1nnc(-c2ccc(F)c(O)c2F)s1` [Compound I-92, 4-((5-(2,4-difluoro-3-hydroxyphenyl)-1,3,4-thiadiazol-2-yl)methyl)-6-(2,2-difluoroethyl)-4,6-diazaspiro[2.4]heptane-5,7-dione], the IC50 is 14.3 nM.
On to `O=C1N(Cc2ccccc2)C(=O)C2(CC2)N1Cc1nnc(-c2cc(C3CC3)c(F)c(O)c2F)s1` [Compound I-63, 6-benzyl-4-((5-(5-cyclopropyl-2,4-difluoro-3-hydroxyphenyl)-1,3,4-thiadiazol-2-yl)methyl)-4,6-diazaspiro[2.4]heptane-5,7-dione], for which the IC50 stood at 18 nM.
The result for `CCN1C(=O)N(Cc2nnc(-c3cncc(O)c3Cl)s2)C2(CC2)C1=O` [Compound I-11, 4-((5-(4-chloro-5-hydroxypyridin-3-yl)-1,3,4-thiadiazol-2-yl)methyl)-6-ethyl-4,6-diazaspiro[2.4]heptane-5,7-dione] reads 245 nM; that for `O=C1N(Cc2nnc(-c3ccc(F)c(O)c3Cl)s2)C2(CC2)C(=O)N1C1(c2ccccc2)CC1` [Compound I-103, 4-((5-(2-chloro-4-fluoro-3-hydroxyphenyl)-1,3,4-thiadiazol-2-yl)methyl)-6-(1-phenylcyclopropyl)-4,6-diazaspiro[2.4]heptane-5,7-dione], 4.39 nM.
Under `CC[C@@H](C)N1C(=O)N(Cc2nnc(-c3ccc(F)c(O)n3)s2)C2(CC2)C1=O` [Compound I-77, (R)-6-(sec-butyl)-4-((5-(5-fluoro-6-hydroxypyridin-2-yl)-1,3,4-thiadiazol-2-yl)methyl)-4,6-diazaspiro[2.4]heptane-5,7-dione] stands 1060 nM; under `C[C@H](c1ccccc1)N1C(=O)N(Cc2nnc(-c3ccc(F)c(O)n3)s2)C2(CC2)C1=O` [Compound I-79, (R)-4-((5-(5-fluoro-6-hydroxypyridin-2-yl)-1,3,4-thiadiazol-2-yl)methyl)-6-(1-phenylethyl)-4,6-diazaspiro[2.4]heptane-5,7-dione], 122 nM.
Under `O=C1N(CC(F)(F)F)C(=O)C2(CC2)N1Cc1nnc(-c2cc(C(F)(F)F)c(F)c(O)n2)s1` [Compound I-60, 4-((5-(5-fluoro-6-hydroxy-4-(trifluoromethyl)pyridin-2-yl)-1,3,4-thiadiazol-2-yl)methyl)-6-(2,2,2-trifluoroethyl)-4,6-diazaspiro[2.4]heptane-5,7-dione] stands 2960 nM; under `O=C1N(CC(F)(F)F)C(=O)C2(CC2)N1Cc1nnc(-c2ccc(Cl)c(O)c2F)s1` [Compound I-24, 4-((5-(4-chloro-2-fluoro-3-hydroxyphenyl)-1,3,4-thiadiazol-2-yl)methyl)-6-(2,2,2-trifluoroethyl)-4,6-diazaspiro[2.4]heptane-5,7-dione], 71.4 nM; under `O=C1N(C(c2ccccc2)c2ccccc2)C(=O)C2(CC2)N1Cc1nnc(-c2ccc(F)c(O)c2F)s1` [Compound I-95, 6-benzhydryl-4-((5-(2,4-difluoro-3-hydroxyphenyl)-1,3,4-thiadiazol-2-yl)methyl)-4,6-diazaspiro[2.4]heptane-5,7-dione], 62 nM.
For the molecule `CCCCN1C(=O)N(Cc2nnc(-c3ccc(F)c(O)c3F)s2)C2(CC2)C1=O` [Compound I-28, 6-butyl-4-((5-(2,4-difluoro-3-hydroxyphenyl)-1,3,4-thiadiazol-2-yl)methyl)-4,6-diazaspiro[2.4]heptane-5,7-dione], the IC50 came to 8.11 nM.
The result for `O=C1N(C(c2ccc(F)cc2F)C(F)(F)F)C(=O)C2(CC2)N1Cc1nnc(-c2ccc(F)c(O)n2)s1` (stereo not drawn) [Compound I-89, 6-(1-(2,4-difluorophenyl)-2,2,2-trifluoroethyl)-4-((5-(5-fluoro-6-hydroxypyridin-2-yl)-1,3,4-thiadiazol-2-yl)methyl)-4,6-diazaspiro[2.4]heptane-5,7-dione] reads 15.6 nM; that for `O=C1N(Cc2ccccc2)C(=O)C2(CC2)N1Cc1nnc(-c2nc(C(F)(F)F)c(F)c(O)c2F)s1` [Compound I-59, 6-benzyl-4-((5-(3,5-difluoro-4-hydroxy-6-(trifluoromethyl)pyridin-2-yl)-1,3,4-thiadiazol-2-yl)methyl)-4,6-diazaspiro[2.4]heptane-5,7-dione], 161 nM.

One may read the IC50 as the concentration at which inhibition is half-maximal.

Values taken from patent US20250026745A1 (Bluejay Therapeutics, Inc., priority 2023, published 2025).
